Assay results taken from PubChem BioAssay (NCI).
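Cells were grown in 96-well plates and exposed to each compound for 48 hours at five concentrations; endpoints were interpolated linearly between bracketing concentrations, or set to the highest concentration if not reached. Definition used: TGI = concentration required for complete inhibition of growth.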

Assays:
Experiment in all cases: DTP human tumour cell line panel, 48 h
[1] = test system: SN12C renal
[2] = test system: HL-60(TB) leukemia
[3] = test system: HCC-2998 colon
[4] = test system: MALME-3M melanoma
[5] = test system: T-47D breast
[6] = test system: HCT-116 colon
[7] = test system: SF-539 CNS
[8] = test system: IGROV1 ovarian
[9] = test system: M14 melanoma
[10] = test system: SF-268 CNS
[11] = test system: TK-10 renal
[12] = test system: K-562 leukemia
[13] = test system: HS 578T breast
[14] = test system: SNB-19 CNS
[15] = test system: 786-0 renal
[16] = test system: SW-620 colon
[17] = test system: DU-145 prostate
[18] = test system: KM12 colon
[19] = test system: SK-MEL-5 melanoma
[20] = test system: SF-295 CNS
[21] = test system: SNB-75 CNS
[22] = test system: HOP-92 NSCLC
[23] = test system: UO-31 renal
[24] = test system: ACHN renal
[25] = test system: HOP-62 NSCLC
[26] = test system: CAKI-1 renal
[27] = test system: PC-3 prostate
[28] = test system: MDA-N
[29] = test system: MDA-MB-435
[30] = test system: COLO 205 colon
[31] = test system: NCI-H226 lung
[32] = test system: SK-MEL-28 melanoma
[33] = test system: MDA-MB-231 breast
[34] = test system: MOLT-4 leukemia
[35] = test system: RPMI-8226 leukemia
[36] = test system: UACC-257 melanoma
[37] = test system: HT29 colon
[38] = test system: RXF 393 renal
[39] = test system: NCI/ADR-RES ovarian
[40] = test system: EKVX NSCLC
[41] = test system: HCT-15 colon
[42] = test system: OVCAR-8 ovarian
[43] = test system: SK-MEL-2 melanoma
[44] = test system: NCI-H460 lung
[45] = test system: OVCAR-3 ovarian
[46] = test system: UACC-62 melanoma
[47] = test system: A549 NSCLC
[48] = test system: LOX IMVI melanoma
[49] = test system: NCI-H23 lung
[50] = test system: A498 renal
[51] = test system: OVCAR-4 ovarian
[52] = test system: OVCAR-5 ovarian
[53] = test system: SR leukemia
[54] = test system: MCF7 breast
[55] = test system: SK-OV-3 ovarian
[56] = test system: CCRF-CEM leukemia
[57] = test system: U251 CNS
[58] = test system: NCI-H522 lung

`C[C@H]1C[C@H](C)c2ccccc2N(C)C1=Nc1ccccc1` gave a TGI [1] of over 100 µM, a TGI [2] of 48.3 µM and a TGI [3] of over 100 µM. For the same molecule, the TGI [4] was 71.4 µM, the TGI [5] was over 100 µM and the TGI [6] was 46.3 µM. It also gave a TGI [7] of over 100 µM, a TGI [8] of 78 µM and a TGI [9] of 56.2 µM. For the same molecule, the TGI [10] was over 100 µM, the TGI [11] was 55.6 µM and the TGI [12] was over 100 µM. The TGI [13] was over 100 µM, the TGI [14] was over 100 µM and the TGI [15] was 64 µM. The TGI [16] was over 100 µM, the TGI [17] was over 100 µM and the TGI [18] was over 100 µM. For the same molecule, the TGI [19] was 31.3 µM, the TGI [20] was over 100 µM and the TGI [21] was over 100 µM. The TGI [22] was 40.1 µM, the TGI [23] was over 100 µM and the TGI [24] was over 100 µM. For the same molecule, the TGI [25] was over 100 µM, the TGI [26] was over 100 µM and the TGI [27] was over 100 µM. It also gave a TGI [28] of 68.7 µM, a TGI [29] of 52.8 µM and a TGI [30] of 49.7 µM. It also gave a TGI [31] of 83.6 µM, a TGI [32] of over 100 µM and a TGI [33] of 41.4 µM. For the same molecule, the TGI [34] was 72.7 µM, the TGI [35] was over 100 µM and the TGI [36] was 48.2 µM. The TGI [37] was 23.3 µM, the TGI [38] was 92.2 µM and the TGI [39] was over 100 µM. For the same molecule, the TGI [40] was over 100 µM, the TGI [41] was over 100 µM and the TGI [42] was over 100 µM. It also gave a TGI [43] of 44.2 µM, a TGI [44] of 64.4 µM and a TGI [45] of 80 µM. It also gave a TGI [46] of over 100 µM, a TGI [47] of over 100 µM and a TGI [48] of 31.7 µM. The TGI [49] was 50 µM, the TGI [50] was 84.4 µM and the TGI [51] was over 100 µM. For the same molecule, the TGI [52] was 78 µM, the TGI [53] was 58.3 µM and the TGI [54] was over 100 µM.

Work on `C(=NCc1ccccc1)c1ccccc1-c1ccccc1C=NCc1ccccc1` yielded a TGI [1] of over 10 µM, a TGI [2] of 5.73 µM and a TGI [4] of over 10 µM. It also gave a TGI [5] of over 10 µM, a TGI [6] of over 10 µM and a TGI [7] of over 10 µM. The TGI [8] was over 10 µM, the TGI [9] was over 10 µM and the TGI [10] was over 10 µM. It also gave a TGI [11] of over 10 µM, a TGI [12] of 9.76 µM and a TGI [14] of over 10 µM. The TGI [15] was over 10 µM, the TGI [16] was over 10 µM and the TGI [17] was over 10 µM. The TGI [18] was over 10 µM, the TGI [19] was over 10 µM and the TGI [20] was over 10 µM. For the same molecule, the TGI [55] was over 10 µM, the TGI [21] was over 10 µM and the TGI [22] was over 10 µM. The TGI [23] was over 10 µM, the TGI [24] was over 10 µM and the TGI [25] was over 10 µM. It also gave a TGI [26] of over 10 µM, a TGI [27] of over 10 µM and a TGI [28] of over 10 µM. The TGI [29] was over 10 µM, the TGI [56] was over 10 µM and the TGI [30] was over 10 µM. The TGI [31] was over 10 µM, the TGI [32] was over 10 µM and the TGI [57] was over 10 µM. The TGI [33] was over 10 µM, the TGI [58] was over 10 µM and the TGI [34] was over 10 µM. It also gave a TGI [35] of over 10 µM, a TGI [36] of 7.53 µM and a TGI [37] of over 10 µM. For the same molecule, the TGI [38] was over 10 µM, the TGI [39] was over 10 µM and the TGI [40] was over 10 µM. The TGI [41] was over 10 µM, the TGI [42] was over 10 µM and the TGI [43] was over 10 µM. For the same molecule, the TGI [44] was over 10 µM, the TGI [45] was over 10 µM and the TGI [46] was over 10 µM. The TGI [47] was over 10 µM, the TGI [48] was over 10 µM and the TGI [49] was over 10 µM. It also gave a TGI [50] of over 10 µM, a TGI [51] of over 10 µM and a TGI [52] of over 10 µM. The TGI [53] was over 10 µM and the TGI [54] was over 10 µM.
